According to patent US7833991B2, “Amine compound and use thereof” (Kureha Corporation, priority 2002, dated 2010):

How the values were obtained:
CXCR4 = target: T1, CXCR4 (Homo sapiens, UniProt P61073); experiment: Inhibition of 125I-SDF-1α binding to receptors CXCR4 on MT-4 cells (Test Examples 2 and 5); conditions: binding-inhibition % at 0.1 μM, as in Test Example 2; Table 5; read-out: CXCR4 Activity % at 0.1 μM
T1 construct: endogenous in cells; host or cells: MT-4 cells
Protocol: MT-4 cells (5×10^6/0.2 ml/well) were cultured on a 24-well microtiter plate. After the cells were incubated for 24 hours at 37° C. in a carbon dioxide gas incubator, a culture medium was replaced with a buffer solution (0.1% BSA-containing RPMI-1640). Together with a ligand ^125I-SDF-1α, (specific activity: 2,200 Ci/mmol; available from Daiichi Pure Chemicals Co., Ltd. (Tokyo)), test materials with various concentrations were subjected to a binding reaction for 2 hours under ice-cooling. […] Then, a rate of inhibition of the binding between radio-active ligands and receptors CXCR4 by a test material was calculated (a binding-inhibition % at 0.1 μM).
(§1) Compounds of the present invention having various substituted and unsubstituted heterocyclic rings for the substituent A2 of formula (1) were tested for antiviral (anti-HIV) activity as in Test Example 1 and for CXCR4 activity as in Test Example 2. The compounds, various substituents of the compounds, antiviral activity represented by the concentration required for inhibition of all disorder due to HIV injection by 50% (EC50: 50% Effective Concentration, μM), and CXCR4 activity calculated as a rate of inhibition of the binding between radioactive ligands and CXCR4 receptors by a test material (a binding-inhibition % at 0.1 μM) are shown in Table 5: […]

[1] = system: HIV-1IIIB infected MT-4 cells; experiment: Antiviral activity in HIV-1IIIB infected MT-4 cells, MTT method (Test Examples 1 and 5); assay type: cell-based; conditions: Human immunodeficiency virus 1, MT4; as in Test Example 1; Table 5; read-out: HIV Activity EC50
Protocol: Immediately after infection, HIV-1IIIB infected MT-4 cells (3.0×10^4/well, MOI (Multiplicity of infection): 0.01) were added to a 96-well microtiter plate together with the test compounds having different concentrations. The cells were cultured in a carbon dioxide incubator at 37° C. for 5 days, and the number of living cells was measured in accordance with the MTT (tetrazolium) method (Pawels, et al., Journal of Virology Method, 20, 309-321 ([…])). The antiviral activity is represented by the concentration required for inhibition of cell disorder due to HIV by 50% (EC50: 50% Effective Concentration) (μM), and the results are shown in Table 2.
as §1

T1 sequence (P61073 whole entry): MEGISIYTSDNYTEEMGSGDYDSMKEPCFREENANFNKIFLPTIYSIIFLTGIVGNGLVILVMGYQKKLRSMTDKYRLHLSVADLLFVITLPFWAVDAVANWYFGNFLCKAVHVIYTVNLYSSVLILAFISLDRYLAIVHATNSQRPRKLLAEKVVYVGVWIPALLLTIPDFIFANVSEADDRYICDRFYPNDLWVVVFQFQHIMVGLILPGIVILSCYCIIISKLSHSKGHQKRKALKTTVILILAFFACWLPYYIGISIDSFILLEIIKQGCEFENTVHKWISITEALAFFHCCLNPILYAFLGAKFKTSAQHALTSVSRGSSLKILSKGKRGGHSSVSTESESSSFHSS

Structure (SMILES)	inhibition at 0.1 µM (CXCR4) [%]	EC50 [1] [nM]
CCCN(CCC)Cc1cccc(NC(=O)c2ccc(CN(Cc3ncc[nH]3)Cc3ncc[nH]3)cc2)c1 [Compound No. 33, 4-{[bis(1H-imidazol-2-ylmethyl)-amino]-methyl}-N-(3-dipropylaminomethylphenyl)-benzamide]	97.8	46
CCCN(CCC)Cc1ccc(NC(=O)c2ccc(CN(Cc3nccn3C)Cc3nccn3C)cc2)cc1 [Compound No. 41, 4-{[bis(1-methyl-1H-imidazol-2-ylmethyl)-amino]-methyl}-N-(4-dipropylaminomethylphenyl)-benzamide]		3
CCCN(CCC)Cc1ccc(NC(=O)c2ccc(CN(Cc3cc4ccccc4cn3)Cc3ncc[nH]3)cc2)cc1 [Compound No. 47, N-(4-dipropylaminomethylphenyl)-4-{[(1H-imidazol-2-ylmethyl)-(isoquinolin-3-ylmethyl)-amino]-methyl}-benzamide]	98.8	20
CCCN(CCC)Cc1ccc(NC(=O)c2ccc(CN(Cc3ncc[nH]3)Cc3ncccc3C)cc2)cc1 [Compound No. 53, N-(4-dipropylaminomethylphenyl)-4-{[(1H-imidazol-2-ylmethyl)-(3-methylpyridin-2-ylmethyl)-amino]-methyl}-benzamide]	97.7	9
CCCN(CCC)Cc1ccc(NC(=O)c2ccc(CN(Cc3ccc(C)cn3)Cc3ncc[nH]3)cc2)cc1 [Compound No. 56, N-(4-dipropylaminomethylphenyl)-4-{[(1H-imidazol-2-ylmethyl)-(5-methylpyridin-2-ylmethyl)-amino]-methyl}-benzamide]	98.8	3
CCCN(CCC)Cc1ccc(NC(=O)c2ccc(CN(Cc3ccncc3)Cc3ncc[nH]3)cc2)cc1 [Compound No. 58, N-(4-dipropylaminomethylphenyl)-4-{[(1H-imidazol-2-ylmethyl)-(pyridin-4-ylmethyl)-amino]-methyl}-benzamide]	18.6	97
CCCN(CCC)Cc1ccc(NC(=O)c2ccc(CN(Cc3ncc[nH]3)Cc3ncccc3OCC)cc2)cc1 [Compound No. 59, N-(4-dipropylaminomethylphenyl)-4-{[(1H-imidazol-2-ylmethyl)-(3-ethoxypyridin-2-ylmethyl)-amino]-methyl}-benzamide]	98.2	24
CCCN(CCC)Cc1ccc(NC(=O)c2ccc(CN(Cc3ncc[nH]3)Cc3ncc(C)c(OC)c3C)cc2)cc1 [Compound No. 64, N-(4-dipropylaminomethylphenyl)-4-{[(1H-imidazol-2-ylmethyl)-(4-methoxy-3,5-dimethylpyridin-2-ylmethyl)-amino]-methyl}-benzamide]	100	18
CCCN(CCC)Cc1ccc(NC(=O)c2ccc(CN(Cc3ccc(C)cn3)Cc3nccn3C)cc2)cc1 [Compound No. 76, N-(4-dipropylaminomethylphenyl)-4-{[(1-methyl-1H-imidazol-2-ylmethyl)-(5-methylpyridin-2-ylmethyl)-amino]-methyl}-benzamide]		7
CCCN(CCC)Cc1ccc(NC(=O)c2ccc(CN(Cc3cc(C)ccn3)Cc3ncc[nH]3)cc2)cc1 [Compound No. 78, N-(4-dipropylaminomethylphenyl)-4-{[N-(1H-imidazol-2-ylmethyl)-(4-methylpyridin-2-ylmethyl)-amino]-methyl}-benzamide]		19
O=C(Nc1ccc(CNC2CCCCC2)cc1)c1ccc(CN(Cc2ncc[nH]2)Cc2ncc[nH]2)cc1 [Compound No. 89, 4-{[bis(1H-imidazol-2-ylmethyl)-amino]-methyl}-N-(4-cyclohexylaminomethylphenyl)-benzamide]		9
CCCN(CCC)Cc1ccc(NC(=O)c2ccc(CN(Cc3ncc[nH]3)Cc3nccn3CC)cc2)cc1 [Compound No. 91, N-(4-dipropylaminomethylphenyl)-4-{[(1-ethyl-1H-imidazol-2-ylmethyl)-(1H-imidazol-2-ylmethyl)-amino]-methyl}-benzamide]		15
CCCN(CCC)Cc1ccc(NC(=O)c2ccc(CN(Cc3ncc[nH]3)Cc3nccn3CCC)cc2)cc1 [Compound No. 92, N-(4-dipropylaminomethylphenyl)-4-{[(1H-imidazol-2-ylmethyl)-(1-propyl-1H-imidazol-2-ylmethyl)-amino]-methyl}-benzamide]		48
CCCN(CCC)Cc1ccc(NC(=O)c2ccc(CN(Cc3ccc(CC)cn3)Cc3ncc[nH]3)cc2)cc1 [Compound No. 102, N-(4-dipropylaminomethyl-phenyl)-4-{[(5-ethyl-pyridin-2-ylmethyl)-(1H-imidazol-2-ylmethyl)-amino]-methyl}-benzamide]	98.4	3
CCCN(CCC)Cc1ccc(NC(=O)c2ccc(CN(Cc3nc[nH]n3)Cc3ncc[nH]3)cc2)cc1 [Compound No. 114, N-(4-di-n-propylaminomethyl-phenyl)-4-{[(1H-imidazol-2-ylmethyl)-(1H-[1,2,4]-triazol-3-ylmethyl)-amino]-methyl}-benzamide]	96.4	89
CCCN(CCC)Cc1ccc(NC(=O)c2ccc(CN(Cc3nc[nH]n3)Cc3nccn3C)cc2)cc1 [Compound No. 123, N-(4-di-n-propylaminomethyl-phenyl)-4-{[(1-methyl-imidazol-2-ylmethyl)-(1H-[1,2,4]-triazol-3-ylmethyl)-amino]-methyl}-benzamide]		68

The next lines start with results.

inhibition at 0.1 µM (CXCR4) [%]	Structure (SMILES)	EC50 [1] [nM]
46.9	CCCN(CCC)c1ccc(NC(=O)c2ccc(CN(Cc3ncc[nH]3)Cc3ncc[nH]3)cc2)cc1 [Compound No. 15, 4-{[bis(1H-imidazol-2-ylmethyl)-amino]-methyl}-N-(4-dipropylaminophenyl)-benzamide]	
89.6	CCCN(CCC)Cc1ccc(NC(=O)c2ccc(CN(Cc3ncc[nH]3)Cc3ncc[nH]3)c3ccccc23)cc1 [Compound No. 36, 4-{[bis(1H-imidazol-2-ylmethyl)-amino]-methyl}-naphtalene-1-carboxylic acid (4-dipropylaminomethylphenyl)-amide]	501
97.7	CCCN(CCC)Cc1ccc(NC(=O)c2ccc(CN(Cc3ccccn3)Cc3ncc[nH]3)cc2)cc1 [Compound No. 48, N-(4-dipropylaminomethylphenyl)-4-{[(1H-imidazol-2-ylmethyl)-(pyridin-2-ylmethyl)-amino]-methyl}-benzamide]	22
21	CCCN(CCC)Cc1ccc(NC(=O)c2ccc(CN(Cc3ccc4ccccc4n3)Cc3ncc[nH]3)cc2)cc1 [Compound No. 55, N-(4-dipropylaminomethylphenyl)-4-{[(1H-imidazol-2-ylmethyl)-(quinolin-2-ylmethyl)-amino]-methyl}-benzamide]	635
14.7	CCCN(CCC)Cc1ccc(NC(=O)c2ccc(CN(Cc3ncc[nH]3)Cc3nccc4ccccc34)cc2)cc1 [Compound No. 63, N-(4-dipropylaminomethylphenyl)-4-{[(1H-imidazol-2-ylmethyl)-(isoquinolin-1-ylmethyl)-amino]-methyl}-benzamide]	81
100	CCCN(CCC)Cc1ccc(NC(=O)c2ccc(CN(Cc3ccc4cccc(O)c4n3)Cc3ncc[nH]3)cc2)cc1 [Compound No. 72, N-(4-dipropylaminomethylphenyl)-4-{[(8-hydroxyquinolin-2-ylmethyl)-(1H-imidazol-2-ylmethyl)-amino]-methyl}-benzamide]	4
99	Cn1ccnc1CN(Cc1ccc(C(=O)Nc2ccc(CNC3CCCCC3)cc2)cc1)Cc1ncc[nH]1 [Compound No. 88, N-(4-cyclohexylaminomethylphenyl)-4-{[(1H-imidazol-2-ylmethyl)-(1-methyl-1H-imidazol-2-ylmethyl)-amino]-methyl}-benzamide]	5
100	CCCN(CCC)Cc1ccc(NC(=O)c2ccc(CN(Cc3ncc[nH]3)Cc3nccn3CCO)cc2)cc1 [Compound No. 94, N-(4-dipropylaminomethylphenyl)-4-({[1-(2-hydroxyethyl)-1H-imidazol-2-ylmethyl]-(1H-imidazol-2-ylmethyl)-amino}-methyl)-benzamide]	3
99.1	CCCN(CCC)Cc1ccc(NC(=O)c2ccc(CN(Cc3ncc[nH]3)Cc3ncc(C)cc3C)cc2)cc1 [Compound No. 101, 4-{[(3,5-dimethyl-pyridin-2-ylmethyl)-(1H-imidazol-2-ylmethyl)-amino]-methyl}-N-(4-dipropylaminomethyl-phenyl)-benzamide]	5
